# Test results taken from patent publication US20030226169A1, “DNA sequences encoding antifungal proteins” (priority 1995, published 2003).
# Like-named read-outs stand apart in the source and are kept apart here. Non-standard residues stand in square brackets, D forms with d. Residues, ends and D or L forms follow the SMILES beside them. Abu = CC[C@H](N)C(=O)O
# Tests used:
# [1] = test system: Ascophyta pisi (MUCL 30164); format: cell-based; settings: ½ PDB; for A PISI IC: the source numbers peptides by N-terminal amino acid
# Experimental: (§1) The following fungal strains were used: Alternaria brassicicola (MUCL 20297), Ascophyta pisi (MUCL 30164), Botrytis cinerea (MUCL 30158), Fusarium culmorum (IMI 180420) and Verticillium dahliae (MUCL 19210).
# (§2) Fungi were grown on six cereal agar plates at room temperature and under white fluorescent light except for F culmorum and V dahliae which were grown in the dark. The duration of the spore harvest varied between 10 and 25 days depending on the strain. Spores were collected as follows. Five to ten ml of sterile milli-Q water was poured into each dish and the surface of the agar was rubbed with a sterile spatula to obtain a suspension containing mycelium and spores. This suspension was filtered through a sterile glasswool-plugged funnel and the filtrate containing the spores was collected in a sterile polypropylene centrifuge tube. The A brassicicola spores were suspended in sterile 0.1 Tween 20 (Merk, 822184) due to their hydrophobic nature. The spore suspensions were then washed twice by centrifugation at 2,400×g for 15 minutes and resuspended in a small volume of steril milli-Q water. The spore density was determined in a counting chamber and then adjusted to 4×10^7 spores per ml. Aliquots of the spore suspension were transferred to sterile microtubes and an equal volume of sterile 50% glycerol (Merck, 4091) was added to each tube so that a final spore suspension of 2×10^7 spores per ml in 25% glycerol was obtained. After careful mixing of the stock, the spore suspension was transferred in 100 μl aliquots to sterile microtubes and stored at −80° C.
# (§3) Antifungal activity was measured by photospectrometry as described by Broekaert et al, (1990, FEMS Microbiol Lett, 69:55-60). Tests were performed by adding 20 μl of test solution and 80 μl of a fungal spore suspension (2×10^4 spores/ml) per well in a sterile flat-bottom 96-well microtiterplate. The spore suspension was prepared by diluting the stock spore suspension ([…] in 25% glycerol) 1:1000 in half-strength potato dextrose broth. A positive growth control consisting of eight wells containing 20 μl of sterile milli-Q water and 80 μl of the fungal spore suspension was included in each test. The microtiterplates were incubated (with the lid on) in an aerated place at room temperature and under conditions of darkness for all test organisms.
# (§4) After 30 minutes of incubation (when the spores are settled on the well bottom) the optical density was measured in a microplate reader (Bio Rad 3550-UV) at 595 nm. Incubation of the microtiterplates continued until the optical density of the control microculture was between 0.250 and 0.500, which took approximately 72 hours (96 hours for V dahliae). Percentage of growth inhibition (% GI) was estimated as 100 times the ratio of the corrected absorbance of the control microculture minus the corrected absorbance of the test microculture over the corrected absorbance of the control microculture at 595 nm. The corrected absorbance values equal the absorbance at 595 nm of the culture measured after 72 or 96 hours minus the absorbance at 595 nm measured after 30 minutes.
# (§5) % GI=[(Acontrol−Atest/Acontrol]×100
# (§6) where Acontrol=(A72/96h−A30min)control
# (§7) The IC50 value is defined as the concentration that gives a 50% growth inhibition after 72 or 96 hours of incubation. The minimum inhibitory concentration (MIC) corresponds to the minimum concentration that gives 100% growth inhibition after 72 or 96 hours incubation.
# [2] = test system: Fusarium culmorum (IMI 180420); test: Antifungal growth inhibition microplate assay (photospectrometry); format: cell-based; settings: for F CULMORUM IC: Table 6 / FIG. 8: Rs-AFP1-based 9-mer split peptides; for F CULMORUM IC50: Table 7 / FIG. 8: Rs-AFP1-based 12-mer split peptides; for IC50 1/2 PDB / IC50 SMF + pH5 / IC50 SMF + pH7: Table 13: linear β2-β3 loop MPS peptides, duplo; for IC50 1/2 PDB: 2 × 10^4 spores/ml; for IC50 SMF + pH5: SMF+ (1 mM Ca2+, 50 mM K+) pH5; for IC50 SMF + pH7: SMF+ (1 mM Ca2+, 50 mM K+) pH7
# Experimental: as §1, §2, §3, §4, §5, §6, §7
# [3] = Table 6: Rs-AFP1-based 9-mer split peptides
# [4] = Table 3 / FIG. 6: Rs-AFP2-based 9-mer split peptides, ½ PDB, the source numbers peptides by N-terminal amino acid
# [5] = Table 3: Rs-AFP2-based 9-mer split peptides, ½ PDB, duplicate
# [6] = ½ PDB, the source numbers peptides by N-terminal amino acid
# [7] = Table 6: Rs-AFP1-based 9-mer split peptides, ½ PDB
# [8] = Table 7: Rs-AFP1-based 12-mer split peptides
# [9] = Table 4 / FIG. 6: Rs-AFP2-based 12-mer split peptides, ½ PDB, the source numbers peptides by N-terminal amino acid
# [10] = Table 4: Rs-AFP2-based 12-mer split peptides, ½ PDB, triplicate
# [11] = Table 7: Rs-AFP1-based 12-mer split peptides, ½ PDB
# [12] = Table 10: medium 1/16 PDB, one test, fungus not named in Example 7
# [13] = Table 10: medium ½ PDB, one test, fungus not named in Example 7
Molecule,"IC50 [2, 4]","MIC [2, 5]","F CULMORUM IC [2, 6]","F CULMORUM MIC [2, 7]","IC50 [2, 9]","MIC [2, 10]",further results
Ac-ARHGSCNYV-NH2 [compound 77],189 µg/mL,300 µg/mL,193 µg/mL,300 µg/mL,,,"A PISI MIC [1, 3]: 200 µg/mL; A PISI IC [1, 3]: 143 µg/mL"
CC[C@H](C)[C@H](NC(=O)[C@H](CS)NC(=O)[C@H](CCCCN)NC(=O)[C@H](Cc1c[nH]cn1)NC(=O)[C@H](C)NC(=O)[C@@H]1CCCN1C(=O)[C@H](Cc1ccccc1)NC(=O)[C@@H](NC(=O)[C@H](Cc1ccc(O)cc1)NC(=O)[C@H](CC(N)=O)NC(=O)[C@H](CS)NC(=O)[C@H](CO)NC(C)=O)C(C)C)C(N)=O [compound 124] (Ac-SCNYVFPAHKCI-NH2),,,,,135 µg/mL,200 µg/mL,"A PISI IC50 [1, 8]: 318 µg/mL; A PISI MIC [1, 8]: >400 µg/mL; F CULMORUM IC50 [2, 6]: 213 µg/mL; F CULMORUM MIC [2, 11]: 300 µg/mL"
CC[C@H](C)[C@H](NC(=O)[C@H](CS)NC(=O)[C@H](CCCCN)NC(=O)[C@H](Cc1c[nH]cn1)NC(=O)[C@H](C)NC(=O)[C@@H]1CCCN1C(=O)[C@H](Cc1ccccc1)NC(=O)[C@@H](NC(C)=O)C(C)C)C(=O)N[C@@H](CS)C(N)=O [compound 85] (Ac-VFPAHKCIC-NH2),121 µg/mL,200 µg/mL,121 µg/mL,200 µg/mL,,,"A PISI MIC [1, 3]: 400 µg/mL; A PISI IC [1, 3]: 184 µg/mL"
Ac-CNYVFPAHK-NH2 [compound 82],77 µg/mL,100 µg/mL,113 µg/mL,150 µg/mL,,,"A PISI MIC [1, 3]: 400 µg/mL; A PISI IC [1, 3]: 265 µg/mL"
Ac-KARHGSCNY-NH2 [compound 76],162 µg/mL,300 µg/mL,169 µg/mL,250 µg/mL,,,"A PISI MIC [1, 3]: >400 µg/mL; A PISI IC [1, 3]: 342 µg/mL"
CC(=O)NCC(=O)N[C@@H](CO)C(=O)N[C@@H](CS)C(=O)N[C@@H](CC(N)=O)C(=O)N[C@@H](Cc1ccc(O)cc1)C(=O)N[C@H](C(=O)N[C@@H](Cc1ccccc1)C(=O)N1CCC[C@H]1C(=O)N[C@@H](C)C(=O)N[C@@H](Cc1c[nH]cn1)C(=O)N[C@@H](CCCCN)C(=O)N[C@@H](CS)C(N)=O)C(C)C [compound 123] (Ac-GSCNYVFPAHKC-NH2),,,,,280 µg/mL,300 µg/mL,"A PISI IC50 [1, 8]: 349 µg/mL; A PISI MIC [1, 8]: >400 µg/mL; F CULMORUM IC50 [2, 6]: 266 µg/mL; F CULMORUM MIC [2, 11]: 300 µg/mL"
"CC[C@H](NC(=O)[C@H](CO)NC(=O)CNC(=O)[C@H](Cc1c[nH]cn1)NC(=O)[C@H](CCCNC(=N)N)NC(=O)[C@H](C)NC(=O)[C@H](CCCCN)NC(C)=O)C(=O)N[C@@H](CC(N)=O)C(=O)N[C@@H](Cc1ccc(O)cc1)C(=O)N[C@H](C(=O)N[C@@H](Cc1ccccc1)C(=O)N1CCC[C@H]1C(=O)N[C@@H](C)C(=O)N[C@@H](Cc1c[nH]cn1)C(=O)N[C@@H](CCCCN)C(=O)N[C@@H](CC)C(=O)N[C@H](C(=O)N[C@@H](CC)C(=O)N[C@@H](Cc1ccc(O)cc1)C(=O)N[C@@H](Cc1ccccc1)C(N)=O)[C@@H](C)CC)C(C)C [Peptide N1, KARHGSBNYVFPAHKBIBYF] (Ac-KARHGS[Abu]NYVFPAHK[Abu]I[Abu]YF-NH2)",,,,,,,IC50 1/2 PDB [2]: 14.0 ± 6.2 µg/mL; IC50 SMF + pH5 [2]: 27.0 ± 7.7 μg/ml; IC50 SMF + pH7 [2]: 142.6 ± 13.6 μg/ml
"CC[C@H](C)[C@H](NC(=O)[C@H](CS)NC(=O)[C@H](CCCCN)NC(=O)[C@H](Cc1c[nH]cn1)NC(=O)[C@H](C)NC(=O)[C@@H]1CCCN1C(=O)[C@H](Cc1ccccc1)NC(=O)[C@@H](NC(=O)[C@H](Cc1ccc(O)cc1)NC(=O)[C@H](CC(N)=O)NC(=O)[C@H](CS)NC(=O)[C@H](CO)NC(=O)CNC(=O)[C@H](Cc1c[nH]cn1)NC(=O)[C@H](CCCNC(=N)N)NC(=O)[C@H](C)NC(C)=O)C(C)C)C(=O)N[C@@H](CS)C(=O)N[C@@H](Cc1ccc(O)cc1)C(=O)N[C@@H](Cc1ccccc1)C(N)=O [Peptide G1, ARHGSCNYVFPAHKCICYF] (Ac-ARHGSCNYVFPAHKCICYF-NH2)",,,,,,,IC50 1/2 PDB [2]: ARHGSCNYVFPAHKCICYF 17.6 ± 1.1 μg/ml
Ac-CIRLEKARH-NH2 [compound 71],66 µg/mL,100 µg/mL,,,,,
CC[C@H](C)[C@H](NC(=O)[C@H](CS)NC(=O)[C@H](CCC(N)=O)NC(=O)[C@H](CC(N)=O)NC(=O)[C@H](CCCCN)NC(=O)[C@H](CS)NC(=O)[C@H](C)NC(=O)[C@H](CC(N)=O)NC(=O)[C@H](CC(N)=O)NC(=O)[C@H](CC(N)=O)NC(C)=O)C(=O)N[C@@H](CCCNC(=N)N)C(=O)N[C@@H](CC(C)C)C(N)=O [compound 106] (Ac-NNNACKNQCIRL-NH2),,,,,116 µg/mL,150 µg/mL,
RHGSBNYVFPAHKBIBY (Ac-RHGS[Abu]NYVFPAHK[Abu]I[Abu]Y-NH2; listed as Raphanus sativus) [SEQ ID NO: 107],,,,,,,"antifungal activity (in words) ([2]; overlapping 13- to 20-mer MPS peptides Ile26-Phe49, Cys replaced by alpha-aminobutyric acid, FIGS. 10-13): very active"
Ac-YVFPAHKCI-NH2 [compound 84],175 µg/mL,400 µg/mL,145 µg/mL,250 µg/mL,,,
"CC[C@H](NC(=O)[C@H](CO)NC(=O)CNC(=O)[C@H](Cc1c[nH]cn1)NC(=O)[C@H](CCCNC(=N)N)NC(=O)[C@H](C)NC(C)=O)C(=O)N[C@@H](CC(N)=O)C(=O)N[C@@H](Cc1ccc(O)cc1)C(=O)N[C@H](C(=O)N[C@@H](Cc1ccccc1)C(=O)N1CCC[C@H]1C(=O)N[C@@H](C)C(=O)N[C@@H](Cc1c[nH]cn1)C(=O)N[C@@H](CCCCN)C(=O)N[C@@H](CC)C(=O)N[C@H](C(=O)N[C@@H](CC)C(=O)N[C@@H](Cc1ccc(O)cc1)C(=O)N[C@@H](Cc1ccccc1)C(N)=O)[C@@H](C)CC)C(C)C [Peptide G2, ARHGSBNYVFPAHKBIBYF] (Ac-ARHGS[Abu]NYVFPAHK[Abu]I[Abu]YF-NH2)",,,,,,,"antifungal activity compared with peptide G1 (and G2), in words ([2]; 19-mer peptides, Example 7): does not affect antifungal activity; IC50 [2, 12]: 10 µg/mL; MIC [2, 12]: 12.5 µg/mL; IC50 [2, 13]: 17 µg/mL; MIC [2, 13]: 25 µg/mL; IC50 1/2 PDB [2]: 16.0 ± 1.2 µg/mL; IC50 SMF + pH5 [2]: 50.0 ± 6.0 μg/ml; IC50 SMF + pH7 [2]: >400 μg/ml"
Ac-NYVFPAHKC-NH2 [compound 83],175 µg/mL,250 µg/mL,330 µg/mL,400 µg/mL,,,
Ac-NQCIRLEKARHG-NH2 [compound 112],,,,,149 µg/mL,200 µg/mL,
CC[C@H](C)[C@H](NC(=O)[C@H](CS)NC(=O)[C@H](CCC(N)=O)NC(=O)[C@H](CC(N)=O)NC(=O)[C@H](CCCCN)NC(=O)[C@H](CS)NC(=O)[C@H](C)NC(=O)[C@H](CC(N)=O)NC(C)=O)C(=O)N[C@@H](CCCNC(=N)N)C(=O)N[C@@H](CC(C)C)C(=O)N[C@@H](CCC(=O)O)C(=O)N[C@@H](CCCCN)C(N)=O [compound 108] (Ac-NACKNQCIRLEK-NH2),,,,,150 µg/mL,200 µg/mL,
Ac-IRLEKARHGSCN-NH2 [compound 115],,,,,203 µg/mL,300 µg/mL,
